# Measurements published in patent US20240182893A1, “INHIBITION OF FGR REDUCES FIBROSIS” (UNIVERSITY OF PITTSBURGH-OF THE COMMONWEALTH SYSTEM OF …, priority 2021, published 2024).
# Where “and” joins values, the source holds several entries; their conditions need not be identical. Equal values may be shown once. Entries after “also recorded” stand apart in the source; their conditions may differ.
# Experiments:
# other similar kinases [1] = assay: Inhibition of other similar kinases; format: biochemical
# Src-family kinase Fgr = Src-family kinase Fgr (Homo sapiens, UniProt P09769); conditions: cited from earlier work
# Chain of Src-family kinase Fgr (P09769 whole entry): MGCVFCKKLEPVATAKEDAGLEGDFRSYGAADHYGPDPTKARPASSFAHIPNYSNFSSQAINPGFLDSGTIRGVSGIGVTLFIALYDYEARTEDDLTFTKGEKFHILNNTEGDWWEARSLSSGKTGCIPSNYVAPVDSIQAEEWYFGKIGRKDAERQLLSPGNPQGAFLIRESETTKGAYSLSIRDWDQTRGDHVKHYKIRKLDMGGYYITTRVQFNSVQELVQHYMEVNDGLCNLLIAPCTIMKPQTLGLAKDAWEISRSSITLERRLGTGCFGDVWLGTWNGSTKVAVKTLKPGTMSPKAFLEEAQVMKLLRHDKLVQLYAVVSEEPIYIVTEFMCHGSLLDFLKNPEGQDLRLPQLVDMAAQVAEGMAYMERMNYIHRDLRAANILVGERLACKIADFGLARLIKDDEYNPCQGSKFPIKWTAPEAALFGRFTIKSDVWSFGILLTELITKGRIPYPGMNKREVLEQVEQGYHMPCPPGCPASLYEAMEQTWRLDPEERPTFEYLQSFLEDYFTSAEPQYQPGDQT
# [2] = tested on: mouse model of radiation-induced pulmonary fibrosis; assay: Mouse model of radiation-induced pulmonary fibrosis (18 Gy), qPCR and staining of lungs; format: in vivo
# Experimental: (§1) FIG. 47. […] Relative mRNA expression of profibrotic genes (Tgf-β, Ctgf, Collagen 1a1, Collagen 3 and Collagen 4), senescence biomarkers (p16 and p21) and tyrosine kinase Fgr was evaluated by qPCR from one lobe of mouse lungs in control, irradiated and treated with Fgr inhibitor TL02-59 post irradiation. Briefly, Mice were irradiated (18 Gy), and TL02-59 treated (10 mg/kg), 3/week at day 75 for 4 weeks. (n=4-13). Statistics was performed, and individual p values were calculated by unpaired t-test.
# FIG. 48. Expression of Fgr and p16 from mouse lungs in control, irradiated, and treated with Fgr inhibitor TL02-59 post irradiation. […] Insets on the right from each group were magnified for clarity.
# as §1, with “(n=4-13),” for “(n=4-13).”
# [3] = tested on: target cell line (bottom layer); assay: Non-contact transwell coculture with sorted senescent cells from irradiated mouse lungs, profibrotic genes in target cell line; format: cell-based; conditions: FIG. 14
# Text: FIG. 14. Upregulation of profibrotic genes in target cells by irradiated mouse lung senescent cells. In a noncontact transwell co-culture system, filter separated (19) sorted irradiated red and irradiated non-red mouse lung cells plated on top layer, there is significant induction of Tgf-β. Collagen 1a1 and collagen 3 in target cell line (bottom layer).
# To establish that irradiated tdTOMp16+ senescent cells induce profibrotic genes in other cells, a C57BL/6 target cell line and a noncontact transwell co-culture system were used (Ejaz A et al. Stem Cells. 2019, 37, 791-802) (FIG. 14). Using the tdTOMp16+ stromal cell line, significant induction by RIS red cells of collagen 1al, collagen 3, and TGF-β in C57/B6 target cells was observed. The induction was abrogated by the Fgr inhibitor TL02-59 (Mukherjee A et al. Cell Death Discovery, 2021, 7, 349). It was confirmed that the findings in stromal cells also occur in lung. Red and non-red cells from 20 Gy irradiated tdTOMp16 mouse lungs were tested.
# other similar kinases [4] = conditions: cited from earlier work
# [5] = tested on: target C57BL/6 stromal cells; assay: Non-contact transwell coculture: irradiated senescent tdTOMp16+ stromal cells on top, target cells at bottom, RT-qPCR of profibrotic genes; format: cell-based, mouse
# Experimental: It was also confirmed that the RIS cells showing upregulation of Fgr RNA by heat map also had higher RNA levels. Validation of RNA for p16 and p21, as well as Fgr was carried out (FIG. 5A-FIG. 5C). To establish that irradiated tdTOMp16+ senescent cells induce profibrotic genes, a C57BL/6 target cell line, and a noncontact transwell co-culture system was used (FIG. 6A). Irradiated red cells were compared to 0 Gy or irradiated non-red cells. Sorted red cells, were placed on the top of each well and C57/B6 mouse stromal target cells were plated at the bottom well and observed for two weeks. There was significant induction of collagen 1al and collagen 3 in C57/B6 target cells by RIS red cells (FIG. 6B-FIG. 6C). […] (FIG. 6D).
# Transwell experiment: Control and Fgr knockdown stable cell lines were irradiated with 5 Gy by Cesium Gamma Cell dose rate 300 cGy/min. Ten days after radiation, red senescent and non-red non-senescent cells were sorted using MoFlo Astrios Cell Sorter (Beckman Coulter). Senescent and non-senescent cells were plated on the top well of the transwell with a […] pore size (Coster, Cat. No. 3412) and the target C57BL/6 cell line for the evaluation of fibrotic markers was plated at the bottom. 2 weeks later total RNA was extracted from the target C57BL/6 cells and evaluated by qPCR for Collagen 3 (Mm01254476_m1) and TGF-beta (Mm01191861_m1). GAPDH (Mm99999915_g1) was used as the loading control.
# Transwell coculture experiments. A Transwell system (0.4-μm pore size, polyester membrane; Corning, Kennebunk, ME) was used (Ejaz A et al. Stem Cells. 2019, 37, 791-802). C57BL/6 mouse bone marrow stromal cells or mouse primary tail fibroblasts were cultured in the bottom surface of a 9-cm^2 culture dishes. Above the adherent layer in the transwell, tdTOMp16+ bone marrow stromal cells (non-irradiated, irradiated non-sorted, irradiated, and sorted senescent tdTOM+, or irradiated non-senescent tdTOM− cells) were cultured in the upper transwell. […] For the stable Fgr shRNA cells, non-target control and Fgr shRNA knockdown cell lines were also irradiated and sorted following the same protocol. Briefly, tdTOMp16+ cells were irradiated and after 10 days of radiation, the cells were FACS sorted for tdTOM+ and tdTOM− cells and 3×10^5 cells added on the top wells in each case. Coculture was maintained for another 10 days. The target cells from the bottom well were lysed, and total RNA was isolated using TRizol (Sigma) reagent following the manufacturer's protocol. cDNA was synthesized, and expression of profibrotic genes (TGF-β1, CTGF, collagens (Col1, Col3), and α-SMA were analyzed using gene-specific TaqMan primers employing quantitative real-time polymerase chain reaction (PCR).
# In vitro transwell experiments. Senescent bone marrow derived irradiated (5 Gy, subconfluent cultures held for 10 days) tdTOMp16+ cells were sorted for TOM+ (red) color and placed in Transwell cultures. Two types of transwell experiments were carried out. For induction of fibrosis biomarkers in target cells, senescent cells were placed into the top chamber separated from target mesenchymal stem cells (MSCs) derived from the adherent layer of long term C57Bl/6 mouse bone marrow cultures in the bottom chamber by a 0.4-micron pore size membrane. […] The migration of gfp+ cells through the filter to the bottom compartment was measured by imaging the bottom wells and counting gfp+ cells relative to numbers of senescent TOM+ (red) cells. […]
# [6] = 10 nM TL02-59, 10 days, FIG. 23
compound,measurement,setting,value
CCN1CCN(Cc2ccc(NC(=O)c3ccc(C)c(Oc4ncnc5cc(OC)c(OC)cc45)c3)cc2C(F)(F)F)CC1 [TL02-59],fold greater dose required for inhibition of other similar kinases vs Fgr,other similar kinases [1],10 to 100 fold and 10-to-100 fold
same,primary target kinase,Src-family kinase Fgr,primary target
same,"relative mRNA expression of profibrotic genes (Tgf-β, Ctgf, Collagen 1a1, Collagen 3, Collagen 4), senescence biomarkers (p16, p21) and Fgr in lungs (qPCR)","[2]; 18 Gy, TL02-59 10 mg/kg, 3/week at day 75 for 4 weeks, FIG. 47",reduces profibrotic and biomarkers of senescence
same,expression of Fgr and p16 proteins in mouse lungs (images),"[2]; irradiated, TL02-59 post irradiation, FIG. 48",led to a reduction of both the proteins
same,"induction of Tgf-β, Collagen 1a1 and collagen 3 in target cells by irradiated mouse lung senescent cells",[3]; TL02-59 10 nM,can block senescent cell induction of these genes
same,induction of collagen 3 by RIS red lung cells,[3]; cells from 20 Gy irradiated tdTOMp16 mouse lungs,reduced the induction of collagen 3
same,concentration required for inhibition of other similar kinases,other similar kinases [4],100 to 1000 nM
same,induction of TGF-beta in target cells by tdTOM+ senescent cells (RT-qPCR),[5]; [6],significantly inhibited induction; also recorded: abrogates the induction of profibrotic genes
same,induction of collagen 3 in target cells by tdTOM+ senescent cells (RT-qPCR),[5]; [6],significantly inhibited induction; also recorded: abrogates the induction of profibrotic genes
same,induction of fibrosis biomarkers TGF-β and Collagen 3 in target mesenchymal stem cells,"[5]; TL02-59 10 nM, 10 days, FIG. 44",blocked; also recorded: inhibits the induction
same,induction of collagen 3 in target cells by RIS red cells,"[5]; TL02-59 1 μm, transwell, after 2 weeks, FIG. 6D",reduced the induction of collagen 3; also recorded: blocks senescent cell induction
same,"induction of biomarkers of fibrosis (collagen 1a1, collagen 3, TGF-β) in target cells by RIS cells","[5]; transwell co-culture, tdTOMp16+ stromal cell line",abrogates the induction of biomarkers of fibrosis; also recorded: abrogated senescent cell induction of profibrotic genes
